# Reference: patent US20210113524A1, “METHODS OF TREATING MYELOPROLIFERATIVE DISORDERS” (The Henry M. Jackson Foundation for the Advancement of …, priority 2018, published 2021)
# Assays:
# Gata1^low mice [1] = assay: Bone marrow histology and myelofibrosis (reticulin) scoring in Gata1^low mice; assay type: in vivo, mouse
# Procedure: (§1) All animal handling procedures were performed in compliance with guidelines from the National Research Council for the ethical handling of laboratory animals and were approved by the Uniformed Services University of the Health Sciences Institutional Animal Care and Use Committee. Male and female Gata1^low and wild type CD1 mice were purchased from Jackson Laboratories (Bar Harbor, Me.). Quantitative PCR confirmed low expression of Gata1. The mice were crossed to a CD1 background to establish a line of homozygous mutant mice. Mice were kept in a barrier facility for animals accredited by the Association for Assessment and Accreditation of Laboratory Animal Care International. Mice were housed in groups of four. Animal rooms were maintained at 21±2° C., 50%±10% humidity, and 12-hour light/dark cycle with commercial, freely-available rodent ration (Harlan Teklad Rodent Diet 8604, Frederick, Md., USA).
# (§2) HEMATOL. 2010; 38: 270-81. […] 2005; 29: 30-6. Based on previously measured volumes of water consumed per day by the mice, the daily water consumption was determined to be a dose of […] [Davis et al., 2010]. Control animals received acidified water (vehicle) without captopril. Animals were euthanized at 13 months of age.
# (§3) Tissues were paraffin blocked and stained using standard methods for hematoxylin and eosin (H&E), Masson's trichrome, and Gomori's reticulin stain by Histoserve (Germantown, Md.). Stained slides were evaluated by a pathologist who was blinded to the identity of the treatment groups and using a published system for scoring myelofibrosis [Kvasnicka, H. M., Problems and pitfalls in grading of bone marrow fibrosis, collagen deposition and osteosclerosis—a consensus-based study, HISTOPATHOLOGY 2016; 68: 905-15]. Bone marrow sections were digitally scanned using the Zeiss Axioscan, and images were produced with Zen Lite software (Carl Zeiss, USA).
# To determine the efficacy of captopril in reversing MF, morphologic and phenotypic changes in the Gata1^low mouse model were evaluated. […]
# Gata1^low mice [2] = assay: Spleen histology and spleen weight in Gata1^low mice; assay type: in vivo, mouse
# Procedure: as §1, §2, §3
# Levels of megakaryocytes and extramedullary hematopoiesis were compared in the spleens of wild-type, untreated Gata1^low, and captopril-treated Gata1^low mice. […]
# Gata1^low mice [3] = assay: Peripheral complete blood counts with differentials in Gata1^low mice; assay type: in vivo, mouse; details: 72 mg/kg per day captopril in drinking water from 10 to 12 months, euthanized at 13.5 months
# From the text: HEMATOL. […] Control animals received acidified water (vehicle) without captopril.
# Separate mice were used for each point (n=5-6 per group).
# Peripheral blood counts were studied in captopril-treated and untreated Gata1^low mice and their wild-type littermates. […] Complete blood cell counts with differentials were obtained.
# [4] = system: mice exposed to total body radiation; details: mice exposed to total body radiation (Davis et al. 2010); cited from earlier work
# Gata1^low mice [5] = assay: Flow cytometry of megakaryocytes in spleen of Gata1^low mice; details: captopril treatment, p<0.05
# Gata1^low mice [6] = assay: Flow cytometry of CD115-/CD41+ megakaryocytes in bone marrow of Gata1^low mice; details: 72 mg/kg/day captopril from 10 to 12 months, euthanized at 13 months, untreated Gata1^low 1.45%, wild type 0.5%, p<0.05
# Gata1^low mice [7] = assay: qRT-PCR of CD41, CD61, Col1a, Col3a2 mRNA in femur bone marrow of Gata1^low mice; details: 72 mg/kg/day captopril, vs untreated mice, p<0.05
# Gata1^low mice [8] = assay: qRT-PCR of CD41, CD61, Col1a, Col3a2 mRNA in spleen-derived cells of Gata1^low mice; details: captopril treated Gata1^low mice
# [9] = system: C57BL/6 mice exposed to 7.9 Gy total body 60Co irradiation; assay: Serum growth factor and cytokine levels (MSD/ELISA) after 7.9 Gy total body irradiation; details: 7.9 Gy TBI
smiles,measurement,setting,value
C[C@H](CS)C(=O)N1CCC[C@H]1C(=O)O [captopril],megakaryocytic hyperplasia in bone marrow (histology),"Gata1^low mice [1]; captopril for two months (10-12 months of age), evaluated at 13 months, untreated Gata1^low: moderate",only mild megakaryocytic hyperplasia
same,averaged bone marrow reticulin score,"Gata1^low mice [1]; captopril for two months, score out of 3, untreated Gata1^low 1.8, wild type 0",0.5
same,severity of bone marrow fibrosis (histology),"Gata1^low mice [1]; captopril in drinking water (79 mg/kg/day) from 10-12 months of age, evaluated at 13 months, vs untreated Gata1^low",reduced the severity off bone marrow fibrosis
same,decrease in splenic weight,"Gata1^low mice [2]; captopril for 2 months, vs untreated Gata1^low mice, p<0.05",~2 fold
same,extramedullary hematopoiesis in spleen (histology),"Gata1^low mice [2]; captopril for two months, untreated Gata1^low: significant",moderate amounts of extramedullary hematopoiesis
same,atypical megakaryocytes in spleen (histology),"Gata1^low mice [2]; captopril for two months, vs untreated Gata1^low",reduced numbers of atypical megakaryocytes
same,platelet count,Gata1^low mice [3],did not ameliorate
same,eosinophils,Gata1^low mice [3]; vs untreated Gata1^low,normalized
same,lymphocytes,Gata1^low mice [3]; vs untreated Gata1^low,normalized
same,neutrophils,Gata1^low mice [3]; vs untreated Gata1^low,normalized
same,white blood cells (WBC),Gata1^low mice [3]; vs untreated Gata1^low,normalized
same,"blood cell recovery (red blood cells, reticulocytes, platelets) and recovery of colony forming units (CFU-GM, CFU-M, total)",[4],improving blood cell recovery
same,survival rates,[4],improved survival rates
same,"decrease in the frequency of megakaryocytes as a percentage of total live cells, spleen",Gata1^low mice [5],~2 fold
same,number of CD115-/CD41+ megakaryocytes in bone marrow,Gata1^low mice [6],0.6 % of total live cells
same,"decrease of CD41 marker (qRT-PCR), bone marrow",Gata1^low mice [7],approximately 3 fold
same,"decrease of CD61 marker (qRT-PCR), bone marrow",Gata1^low mice [7],~2 fold
same,"decrease of Col1a expression, bone marrow",Gata1^low mice [7],approximately 15 fold
same,"decrease of Col3a2 expression, bone marrow",Gata1^low mice [7],approximately 4 fold
same,"Col3a2 expression (qPCR), spleen",Gata1^low mice [8],"trend toward reduced Col3a2 expression, although this did not reach significance"
same,"decrease of CD41 marker (qRT-PCR), spleen",Gata1^low mice [8]; p<0.05,about 6 fold
same,"decrease of CD61 marker (qRT-PCR), spleen",Gata1^low mice [8]; p<0.05,about 5 fold
same,"reduction in the level of Col1a expression (qPCR), spleen",Gata1^low mice [8]; p<0.05,~4 fold
same,increase in serum EPO,"[9]; 4 days post-irradiation, captopril 13 mg/kg/day in drinking water, same with or without captopril",~10 fold
same,serum EPO level,"[9]; 7 days post-irradiation, captopril 13 mg/kg/day, radiation-plus-vehicle 8.66±0.9, mean±SEM",0.57 ± 0.7 ng/mL
same,serum EPO level,"[9]; 14 days post-irradiation, captopril 13 mg/kg/day, radiation-plus-vehicle 288±140, mean±SEM",140 ± 24 ng/mL
same,serum EPO level,"[9]; 21 days post-irradiation, captopril vs vehicle irradiated group",similarly elevated
same,IL-6 levels post-irradiation,"[9]; any time points (3-30 days), captopril 13 mg/kg/day",did not significantly suppress
same,serum EPO level,"[9]; by 30 days post-irradiation, captopril-treated animals",declined sharply
same,radiation induced G-CSF,"[9]; days 7 and 14 post-irradiation, captopril 13 mg/kg/day from 48 hours post-irradiation for 14 days, p<0.05 vs vehicle",significantly suppressed
same,radiation-induced SAA1 levels,"[9]; days 7 and 14 post-irradiation, delayed (48 hours) low-dose captopril 13 mg/kg/day, p<0.05 vs vehicle",significantly attenuated
